Values after ≈ are worked out from the molar mass of the structure shown. Active and inactive are the calls of the source. The calls are words filed in the database; no cut-off is given here.
What was measured:
[1] = system: Escherichia coli; experiment: Antimicrobial activity against Escherichia coli ATCC 10536 by tube dilution method; assay type: functional
[2] = system: Escherichia coli; experiment: Antimicrobial activity against Escherichia coli Baker 2 carrying APH(3')-I by tube dilution method; assay type: functional
[3] = system: Escherichia coli; experiment: Antimicrobial activity against Escherichia coli LA290R55 carrying ANT(2'') by tube dilution method; assay type: functional
[4] = system: Escherichia coli; experiment: Antimicrobial activity against Escherichia coli JR88 carrying AAC(3) by tube dilution method; assay type: functional
[5] = system: Escherichia coli; experiment: Antimicrobial activity against Escherichia coli HL97/W677 carrying AAC(6') by tube dilution method; assay type: functional
[6] = system: Pseudomonas aeruginosa; experiment: Antimicrobial activity against Pseudomonas aeruginosa St. M. 762 by tube dilution method; assay type: functional
[7] = system: Pseudomonas aeruginosa; experiment: Antimicrobial activity against Pseudomonas aeruginosa St. M. 1395 by tube dilution method; assay type: functional
[8] = system: Pseudomonas aeruginosa; experiment: Antimicrobial activity against Pseudomonas aeruginosa Stone 130 carrying AAC(3) by tube dilution method; assay type: functional
[9] = system: Pseudomonas aeruginosa; experiment: Antimicrobial activity against Pseudomonas aeruginosa GN 315 carrying AAC(6') by tube dilution method; assay type: functional
[10] = system: Klebsiella pneumoniae; experiment: Antimicrobial activity against Klebsiella pneumoniae Adler 17 carrying APH(3')-I by tube dilution method; assay type: functional
[11] = system: Klebsiella pneumoniae; experiment: Antimicrobial activity against Klebsiella pneumoniae Georgetown 3694 carrying APH(2'') by tube dilution method; assay type: functional
[12] = system: Providencia; experiment: Antimicrobial activity against Providencia 164 carrying AAC(2')-I by tube dilution method; assay type: functional
[13] = system: Proteus mirabilis; experiment: Antimicrobial activity against Proteus mirabilis Harding by tube dilution method; assay type: functional
[14] = system: Providencia rettgeri; experiment: Antimicrobial activity against Providencia rettgeri Membel by tube dilution method; assay type: functional
[15] = system: Providencia rettgeri; experiment: Antimicrobial activity against Providencia rettgeri Anderson by tube dilution method; assay type: functional
[16] = system: Serratia marcescens; experiment: Antimicrobial activity against Serratia marcescens Dalton by tube dilution method; assay type: functional
[17] = system: Salmonella typhimurium; experiment: Antimicrobial activity against Salmonella typhimurium Gr. B. by tube dilution method; assay type: functional, Salmonella enterica subsp. enterica serovar Typhimurium; conditions: for MIC: Salmonella enterica
[18] = system: Bacillus subtilis; experiment: Antimicrobial activity against Bacillus subtilis ATCC 6633 by tube dilution method; assay type: functional
[19] = system: Staphylococcus aureus; experiment: Antimicrobial activity against Staphylococcus aureus 209 P by tube dilution method; assay type: functional
[20] = system: Staphylococcus aureus; experiment: Antimicrobial activity against Staphylococcus aureus Wood by tube dilution method; assay type: functional
[21] = system: Staphylococcus aureus; experiment: Antimicrobial activity against Staphylococcus aureus Ziegler by tube dilution method; assay type: functional
[22] = system: Staphylococcus aureus; experiment: Antimicrobial activity against Staphylococcus aureus 59N by tube dilution method; assay type: functional
[23] = system: Streptococcus pyogenes; experiment: Antimicrobial activity against Streptococcus pyogenes C by tube dilution method; assay type: functional
[24] = system: Streptococcus pyogenes; experiment: Antimicrobial activity against Streptococcus pyogenes 27 by tube dilution method; assay type: functional
[25] = system: Streptococcus pyogenes; experiment: Antimicrobial activity against Streptococcus pyogenes Group A Cruz by tube dilution method; assay type: functional
[26] = system: Streptococcus pyogenes; experiment: Antimicrobial activity against Streptococcus pyogenes Alvarez by tube dilution method; assay type: functional
[27] = Acute toxicity in albino CF1 mouse; assay type: organism-based; conditions: in vivo
[28] = system: Trichomonas vaginalis; experiment: Antiprotozoal activity against Trichomonas vaginalis after 48 hrs; assay type: functional
[29] = system: Entamoeba histolytica; experiment: Antiprotozoal activity against Entamoeba histolytica JH; assay type: functional
[30] = system: Histomonas meleagridis; experiment: Antiprotozoal activity against Histomonas meleagridis; assay type: functional

Work on `CNCC1=CC[C@@H](N)[C@@H](O[C@H]2[C@H](O)[C@@H](O[C@H]3OC[C@](C)(O)[C@H](NC)[C@H]3O)[C@H](N)C[C@@H]2N)O1` yielded an MIC [1] of 0.3 µg/mL (≈ 0.65 µM), an MIC [2] of 0.75 µg/mL (≈ 1.62 µM) and an MIC [3] of 17.5 µg/mL (≈ 37.9 µM). For the same molecule, the MIC [4] was > 25 µg/mL, the MIC [5] was 0.75 µg/mL (≈ 1.62 µM) and the MIC [6] was 0.3 µg/mL (≈ 0.65 µM). For the same molecule, the MIC [7] was 0.3 µg/mL (≈ 0.65 µM), the MIC [8] was > 25 µg/mL and the MIC [9] was 0.3 µg/mL (≈ 0.65 µM). For the same molecule, the MIC [10] was 0.075 µg/mL (≈ 0.162 µM), the MIC [11] was > 25 µg/mL and the MIC [12] was > 25 µg/mL. For the same molecule, the MIC [13] was 0.75 µg/mL (≈ 1.62 µM), the MIC [14] was 3 µg/mL (≈ 6.5 µM) and the MIC [15] was > 25 µg/mL. For the same molecule, the MIC [16] was 0.3 µg/mL (≈ 0.65 µM), the MIC [17] was 3 µg/mL (≈ 6.5 µM) and the MIC [18] was < 0.01 µg/mL. For the same molecule, the MIC [19] was < 0.01 µg/mL, the MIC [20] was < 0.01 µg/mL and the MIC [21] was 0.03 µg/mL (≈ 0.065 µM). For the same molecule, the MIC [22] was 0.03 µg/mL (≈ 0.065 µM), the MIC [23] was 3 µg/mL (≈ 6.5 µM) and the MIC [24] was 0.3 µg/mL (≈ 0.65 µM). For the same molecule, the MIC [25] was 0.3 µg/mL (≈ 0.65 µM), the MIC [26] was > 25 µg/mL and the LD50 [27] was 50 mg/kg. The Activity [28] was “inactive”, the Activity [29] was “inactive” and the Activity [30] was “inactive”.

Molecule `CN[C@@H]1[C@@H](O)[C@@H](O[C@@H]2[C@@H](O)[C@H](O[C@H]3OC(CNCCO)=CC[C@H]3N)[C@@H](N)C[C@H]2N)OC[C@]1(C)O` has an MIC [1] of 0.075 µg/mL (≈ 0.153 µM), an MIC [2] of 3 µg/mL (≈ 6.1 µM) and an MIC [3] of 7.5 µg/mL (≈ 15.3 µM). The MIC [4] was > 25 µg/mL, the MIC [5] was 0.75 µg/mL (≈ 1.53 µM) and the MIC [6] was 0.3 µg/mL (≈ 0.61 µM). The MIC [7] was 0.3 µg/mL (≈ 0.61 µM), the MIC [8] was > 25 µg/mL and the MIC [9] was 0.3 µg/mL (≈ 0.61 µM). The MIC [10] was 0.075 µg/mL (≈ 0.153 µM), the MIC [11] was > 25 µg/mL and the MIC [12] was > 25 µg/mL. For the same molecule, the MIC [13] was 0.3 µg/mL (≈ 0.61 µM), the MIC [14] was 0.75 µg/mL (≈ 1.53 µM) and the MIC [15] was > 25 µg/mL. The MIC [16] was 0.75 µg/mL (≈ 1.53 µM), the MIC [17] was 0.75 µg/mL (≈ 1.53 µM) and the MIC [18] was 0.3 µg/mL (≈ 0.61 µM). It also gave an MIC [19] of 0.03 µg/mL (≈ 0.061 µM), an MIC [20] of 0.03 µg/mL (≈ 0.061 µM) and an MIC [21] of 0.03 µg/mL (≈ 0.061 µM). The MIC [23] was > 25 µg/mL, the MIC [25] was 17.5 µg/mL (≈ 35.6 µM) and the MIC [26] was 17.5 µg/mL (≈ 35.6 µM). The LD50 [27] was 135 mg/kg, the Activity [28] was “inactive” and the Activity [29] was “inactive”. For the same molecule, the Activity [30] was “inactive”.

For `CN[C@@H]1[C@@H](O)[C@@H](O[C@@H]2[C@@H](O)[C@H](O[C@H]3OC(/C=N\OC)=CC[C@H]3N)[C@@H](N)C[C@H]2N)OC[C@]1(C)O`, the Activity [1] was “inactive”, the Activity [2] was “inactive” and the Activity [3] was “inactive”. The Activity [4] was “inactive”, the Activity [5] was “inactive” and the Activity [6] was “inactive”. For the same molecule, the Activity [7] was “inactive”, the Activity [8] was “inactive” and the Activity [9] was “inactive”. For the same molecule, the Activity [10] was “inactive”, the Activity [11] was “inactive” and the Activity [12] was “inactive”. The Activity [13] was “inactive”, the Activity [14] was “inactive” and the Activity [15] was “inactive”. For the same molecule, the Activity [16] was “inactive”, the Activity ([17]; Salmonella enterica subsp. enterica serovar Typhimurium) was “inactive” and the Activity [18] was “inactive”. For the same molecule, the Activity [19] was “inactive”, the Activity [20] was “inactive” and the Activity [21] was “inactive”. The Activity [22] was “inactive”, the Activity [23] was “inactive” and the Activity [24] was “inactive”. The Activity [25] was “inactive”, the Activity [26] was “inactive” and the Activity [28] was “inactive”. For the same molecule, the Activity [29] was “inactive” and the Activity [30] was “inactive”.

— ChEMBL document CHEMBL3244132, “Semisynthetic aminoglycoside antibacterials. 6. Synthesis of sisomicin, Antibiotic G-52, and novel 6'-substituted analogues of sisomicin from aminoglycoside 66-40C” (J Med Chem, 1978)
